ChEMBL document CHEMBL4390686, “Design, Synthesis, and Pharmacokinetic Evaluation of Phosphate and Amino Acid Ester Prodrugs for Improving the Oral Bioavailability of the HIV-1 Protease Inhibitor Atazanavir” (J Med Chem, 2019)
≈ marks a conversion by molar mass, not a printed value.

What was measured:
physchem [1] = conditions: 30% CH3CN/HCl buffer, pH 1
Description: Half life in pH 1 30%CH3CN/HCl buffer at 50 mM by RP-UPLC analysis

physchem [2] = conditions: HCl buffer, pH 1
Description: Aqueous solubility of the compound in pH 1 HCl buffer by RP-UPLC analysis

physchem [3] = conditions: acetate buffer, pH 4
Description: Aqueous solubility of the compound in pH 4 acetate buffer by RP-UPLC analysis

[4] = rat, in vivo, po, 3 mg/kg
physchem [5] = conditions: 30% CH3CN/acetate buffer, pH 4
Description: Half life in pH 4 30%CH3CN/acetate buffer at 50 mM by RP-UPLC analysis

[6] = rat, in vivo, po, 3 mg/kg; remark: listed apart in the source
Description: AUClast in cannulated Sprague-Dawley rat assessed as atazanavir level at 3 mg/kg equiv of atazanavir administered orally by UPLC/MS/MS analysis

[7] = Tmax in cannulated Sprague-Dawley rat assessed as (R)-(5S,10S,11S,14S)-11-Benzyl-5,14-di-tert-butyl-3,6,13,16-tetraoxo-8-(4-(pyridin-2-yl)benzyl)-2,17-dioxa-4,7,8,12,15-pentaazaoctadecan-10-yl 2-Amino-3-methylbutanoate level at 3 mg/kg equiv of atazanavir administered orally by UPLC/MS/MS analysis; type: ADME, organism-based; conditions: in vivo, po
physchem [8] = conditions: 30% CH3CN/phosphate buffer, pH 6.5
Description: Half life in pH 6.5 30%CH3CN/phosphate buffer at 50 mM by RP-UPLC analysis

Protease = Protease (Human immunodeficiency virus 1, UniProt Q9YQ12)
Sequence of Protease (Q9YQ12 whole entry): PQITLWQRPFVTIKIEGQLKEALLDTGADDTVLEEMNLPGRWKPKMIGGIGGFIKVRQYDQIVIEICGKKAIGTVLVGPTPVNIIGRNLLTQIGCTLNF
Description: Inhibition of HIV1 protease activity

physchem [9] = conditions: phosphate buffer, pH 6.5
Description: Aqueous solubility of the compound in pH 6.5 phosphate buffer by RP-UPLC analysis

[10] = rat, in vivo, po, 3 mg/kg; remark: listed apart in the source
[11] = system: Human immunodeficiency virus 1
Description: Antiviral activity against HIV1 NL4-3 infected in human MT2 cells assessed as reduction in viral yield measured after 4 days by EnduRen live cell substrate based luciferase reporter gene assay

[12] = Cmax in cannulated Sprague-Dawley rat assessed as (R)-(5S,10S,11S,14S)-11-Benzyl-5,14-di-tert-butyl-3,6,13,16-tetraoxo-8-(4-(pyridin-2-yl)benzyl)-2,17-dioxa-4,7,8,12,15-pentaazaoctadecan-10-yl 2-Amino-3-methylbutanoate level at 3 mg/kg equiv of atazanavir administered orally by UPLC/MS/MS analysis; type: ADME, organism-based; set-up: dose 3 mg/kg, route oral; conditions: in vivo, po

half-life at 50000 µM (physchem [1]): > 20.8 days
solubility (physchem [2]): > 2400 µg/mL
solubility (physchem [3]): > 2200 µg/mL
Cmax [4]: 12 nM
half-life at 50000 µM (physchem [5]): > 20.8 days
AUClast [6]: 53 nM·h
Tmax [7]: 30 min
half-life at 50000 µM (physchem [8]): > 20.8 days
IC50 (Protease): 4 to 1140 nM
solubility (physchem [9]): 820 µg/mL (≈ 908 µM)
Tmax [10]: 1 h
EC50 [11]: 0.9 to 1250 nM
Cmax [12]: 1430 nM
SMILES: COC(=O)N[C@H](C(=O)N[C@@H](Cc1ccccc1)[C@H](CN(Cc1ccc(-c2ccccn2)cc1)NC(=O)[C@@H](NC(=O)OC)C(C)(C)C)OC(=O)[C@H](NC(=O)[C@H](N)C(C)C)C(C)C)C(C)(C)C
